In patent US10464901B2, “Composition including benzene diamine derivative for preventing or treating degenerative brain diseases” (UNIST(ULSAN NATIONAL INSTITUTE OF SCIENCE AND TECHNOLOGY), priority 2017, dated 2019):

Legend:
monomeric Aβ42 = molecular target: T1, monomeric Aβ42 (Homo sapiens, UniProt P05067); experiment: Brain tissue immunohistofluorescence, monomeric Aβ (BAM-10) and plaques (MX04); format: in vivo, mouse; conditions: oral 100 μg/kg twice a week for 2 months, confocal, FIG. 7
T1 construct: from tissue; host or cells: brain of dementia mouse models
T1 sequence (P05067 672-713 limits assumed): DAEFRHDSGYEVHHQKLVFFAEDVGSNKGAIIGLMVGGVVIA
Description: Overexpression of monomeric Aβ may increase formation of oligomeric Aβ, Aβ aggregates, and amyloid plaques to cause neuronal cytotoxicity. Therefore, anatomical analysis of the brain tissue was performed to examine whether the benzene diamine derivatives of the present disclosure inhibit monomeric Aβ formation in dementia mouse models.
As in Experimental Example 1, a control group was orally administered with a vehicle for 2 months, and an experimental group was orally administered with 100 μg/kg/0.1 ml of N^1-(pyridin-2-ylmethyl)benzene-1,4-diamine (Compound 2) twice a week for 2 months. The brain was taken from a non-treated dementia mouse model (4 months), and the brains of the control group and the experimental group were also taken after the administration. Each mouse was anesthetized with ketamine, and then the skull was incised. The brain was then embedded in paraffin and subjected to immunohistofluorescence staining. The brain tissues were fixed in formalin and sectioned at a thickness of 50 μm by using a vibrotome, and each tissue was placed on a glass slice. For comparison of monomeric Aβ, BAM-10 monoclonal anti-Aβ primary antibody labeled with QD525 probe (green fluorescence) was used to examine changes in the quantity of monomeric Aβ42. […]

Aβ aggregates = experiment: Brain tissue staining of Aβ aggregates with Thioflavin T; format: in vivo, mouse; conditions: oral 100 μg/kg twice a week for 2 months, confocal, FIG. 9
Description: Like oligomeric Aβ, Aβ aggregates in the brain tissue may cause neuronal cell death by neuronal cytotoxicity, which may cause dementia. Therefore, anatomical analysis of the brain tissue was performed to examine whether the benzene diamine derivatives of the present disclosure inhibit neuronal cytotoxicity by Aβ aggregates in dementia mouse models.
In detail, as in Experimental Example 7-1, the dementia mouse models were prepared and their brain tissues were stained. Aβ aggregates in the brain tissue were labeled with Thioflavin T (ThT, Sigma-Aldrich) (green fluorescence), plaques were stained with a fluorescent staining reagent MX04 (blue), and incubated at 4° C. for 12 hours. Thereafter, the tissues were observed under a confocal microscope at 0.5×10.

[1] = Antioxidant effect: free organic radical-scavenging activity (ABTS) using cell lysate; format: biochemical; conditions: Table 1 summary of Example 3; symbols not defined
Description: It was examined whether the benzene diamine derivatives of the present disclosure have an antioxidant effect. It is known that reactive oxygen species induces oxidative stress in neuronal cells to cause neuronal cell death and causes protein misfolding to induce formation of Aβ aggregates. Therefore, compounds having antioxidant effects may be candidates for preventing or treating dementia.
Free organic radical-scavenging activity of the compound was determined according to a protocol of Cayman Chemical Company (Ann Arbor, Mich., USA) with slight modifications. For antioxidant analysis using a cell lysate, cells were seeded in a 6-well plate, and cultured until they reached 80-90% confluence. A cell lysate was prepared according to a known method, washed with a cold phosphate buffer solution (PBS; pH 7.4, GIBCO), and then harvested. Cell pellet was produced by centrifugation (2,000 g, 4° C., 10 min). This pellet was sonicated (5 sec pulse, 20 sec interval, three times) in 2 ml of cold assay buffer S13 (5 mM potassium phosphate, pH 7.4; 0.9% NaCl; 0.1% glucose) on ice. A cell lysate was centrifuged at 4° C. for 10 minutes at 5,000 g. A supernatant was removed, and left on ice until use. To the cell lysate supernatant (10 μl), the compound, metmyoglobin, ABTS (2,2′-azino-bis-3-ethylbenzothiazoline-6-sulfonic acid), and hydrogen peroxide were sequentially added. The mixture was incubated on a shaker at room temperature for 5 minutes, and absorbance at 750 nm was measured. The compound at a final concentration of 45, 90, 135, 180, 225, or 330 μM and Trolox (6-hydroxy-2,5,7,8-tetramethyl-chroman-2-carboxylic acid, dissolved in EtOH) were used. Antioxidant activity was calculated according to the measured absorbance [% inhibition=100×(A0−A)/A0, A0 represents absorbance of the supernant of the cell lysate]. Each measurement was repeated in triplicate.

plaques (MX04) in brain (monomeric Aβ42): plaques were hardly observed
SMILES: Nc1ccc(NCc2ccccn2)cc1 [Compound 2, N^1-(pyridin-2-ylmethyl)benzene-1,4-diamine]
monomeric Aβ formation in cortex and hippocampus (monomeric Aβ42): monomeric Aβ formation was hardly observed | Aβ aggregates (ThT) in brain (Aβ aggregates): Aβ aggregates were hardly observed | Reactive oxygen species (antioxidant effect) [1]: ◯ (better effect than TEAC)
